Here are results for 17 compounds from PubChem BioAssay AID190 (DTP/NCI, 2004).

Inconclusive results and toxic doses are left out.

This assay deals with AKR/Lw mice, AKR lymphoma ip, median survival T/C. As to the kind of experiment: NCI In Vivo Anticancer Drug Screen. Data for tumor model Lymphoma AKR (Transplanted) (intraperitoneal) in AKR/Lw mice. The settings on record: endpoint: median survival time, higher = longer survival. As for the experimental part:
The antitumor activity of compounds was measured in mice bearing transplantable tumors. Survival or tumor size were measured and the results are expressed as the measurement made in the treated group (T) divided by the measurement made in the vehicle treated control group (C). The tumor model used in this assay is Lymphoma AKR (Transplanted) (intraperitoneal) in AKR/Lw mice

[1] abbreviates: dose: 100.0 mg/kg/injection, schedule: Q01DX001 (ip), vehicle: saline.
Where [2] appears, read: dose: 200.0 mg/kg/injection, schedule: Q01DX001 (ip), vehicle: saline.
Setting [3] is: dose: 200.0 mg/kg/injection, schedule: Q04DX003 (ip), vehicle: other.
Where [4] appears, read: dose: 400.0 mg/kg/injection, schedule: Q01DX001 (ip), vehicle: saline.
[5] abbreviates: dose: 100.0 mg/kg/injection, schedule: Q01DX001 (ip), vehicle: Klucel (hydroxypropylcellulose) (HPC).
Setting [6] is: dose: 200.0 mg/kg/injection, schedule: Q01DX001 (ip), vehicle: Klucel (hydroxypropylcellulose) (HPC).
The mark [7] stands for this setting: dose: 400.0 mg/kg/injection, schedule: Q01DX001 (ip), vehicle: Klucel (hydroxypropylcellulose) (HPC).

Regarding `COc1cc2c(c3c1c(=O)c1ccccc1n3C)C=CC(C)(C)O2`, the T/C runs as follows: (dose: 16.0 mg/kg/injection, schedule: Q01DX010 (ip), vehicle: Klucel (hydroxypropylcellulose) (HPC)) 106 % of control; (dose: 31.25 mg/kg/injection, schedule: Q01DX010 (ip), vehicle: Klucel (hydroxypropylcellulose) (HPC)) 103 % of control; (dose: 36.0 mg/kg/injection, schedule: Q03HX024 (ip), vehicle: Klucel (hydroxypropylcellulose) (HPC)) 120 % of control; (dose: 62.5 mg/kg/injection, schedule: Q01DX010 (ip), vehicle: Klucel (hydroxypropylcellulose) (HPC)) 122 % of control; (dose: 62.5 mg/kg/injection, schedule: Q03HX024 (ip), vehicle: Klucel (hydroxypropylcellulose) (HPC)) 115 % of control; (dose: 125.0 mg/kg/injection, schedule: Q03HX024 (ip), vehicle: Klucel (hydroxypropylcellulose) (HPC)) 115 % of control. In addition, the T/C (dose: 360.0 mg/kg/injection, schedule: Q04DX003 (ip), vehicle: Klucel (hydroxypropylcellulose) (HPC)) was 122 % of control.

Turning to `COc1cc2ccc(CC(=O)NCc3ccccc3)cc2cc1OC`, the T/C by setting is: under setting [1], 117 % of control; under setting [2], 107 % of control; under setting [3], 95 % of control; under setting [4], 103 % of control.

With `NC(CSC(c1ccccc1)(c1ccccc1)c1ccc(CO)cc1)C(=O)O` (stereo unspecified), the T/C was 100 % of control under setting [5], 94 % of control under setting [6] and 110 % of control under setting [7].

Regarding `NC(=O)c1[nH]nc(C2OC(CO)C(O)C2O)c1O` (stereo unspecified), the T/C (dose: 0.07 mg/kg/injection, schedule: Q01DX009 (ip), vehicle: saline) is 86 % of control; the T/C (dose: 0.25 mg/kg/injection, schedule: Q04DX003 (ip), vehicle: saline) is 105 % of control; the T/C (dose: 0.5 mg/kg/injection, schedule: Q04DX003 (ip), vehicle: saline) was 105 % of control; the T/C (dose: 0.75 mg/kg/injection, schedule: Q04DX003 (ip), vehicle: saline) was 88 % of control; the T/C (dose: 1.0 mg/kg/injection, schedule: Q04DX003 (ip), vehicle: saline) was 90 % of control; the T/C (dose: 7.5 micrograms/kg/injection, schedule: Q01DX009 (ip), vehicle: saline) was 110 % of control. For the same compound, the T/C reads like this: (dose: 15.0 micrograms/kg/injection, schedule: Q01DX009 (ip), vehicle: saline) 121 % of control; (dose: 30.0 micrograms/kg/injection, schedule: Q01DX009 (ip), vehicle: saline) 103 % of control; (dose: 60.0 micrograms/kg/injection, schedule: Q01DX009 (ip), vehicle: saline) 121 % of control.

Regarding `COc1ccc(CCN2C(=O)CSC2=S)cc1OC`, the T/C was 100 % of control under setting [5] and 100 % of control under setting [7].

Regarding `C#CCn1cnc2c(Cl)ncnc21`, the T/C runs as follows: under setting [5], 97 % of control; under setting [6], 104 % of control; under setting [7], 107 % of control.

For `CO[C@H]1/C=C/O[C@@]2(C)Oc3c(C)c(O)c4c(O)c(c(/C=N/N5C(C)CN(Cc6ccccc6)CC5C)c(O)c4c3C2=O)NC(=O)/C(C)=C\C=C\[C@H](C)[C@H](O)[C@@H](C)[C@@H](O)[C@@H](C)[C@H](OC(C)=O)[C@@H]1C` (stereo partly specified), the T/C reads like this: (dose: 12.5 mg/kg/injection, schedule: Q01DX008 (ip), vehicle: Klucel (hydroxypropylcellulose) (HPC)) 99 % of control; (dose: 25.0 mg/kg/injection, schedule: Q01DX008 (ip), vehicle: Klucel (hydroxypropylcellulose) (HPC)) 104 % of control; (dose: 50.0 mg/kg/injection, schedule: Q01DX008 (ip), vehicle: Klucel (hydroxypropylcellulose) (HPC)) 91 % of control; (dose: 100.0 mg/kg/injection, schedule: Q01DX008 (ip), vehicle: Klucel (hydroxypropylcellulose) (HPC)) 103 % of control; (dose: 200.0 mg/kg/injection, schedule: Q01DX008 (ip), vehicle: Klucel (hydroxypropylcellulose) (HPC)) 96 % of control; (dose: 400.0 mg/kg/injection, schedule: Q01DX008 (ip), vehicle: Klucel (hydroxypropylcellulose) (HPC)) 95 % of control.

Take `Cc1cc(NS(=O)(=O)c2ccc(N)cc2)no1`: the T/C is 110 % of control under setting [1]; 95 % of control (dose: 100.0 mg/kg/injection, schedule: Q04DX003 (ip), vehicle: other); 103 % of control under setting [2]; 95 % of control under setting [3]; 96 % of control under setting [4]; 95 % of control (dose: 400.0 mg/kg/injection, schedule: Q04DX003 (ip), vehicle: other).

With `COc1cc([C@@H]2c3cc4c(cc3[C@@H](OC3OC5COC(C)OC5C(O)C3O)[C@H]3COC(=O)[C@H]23)OCO4)cc(OC)c1O` (stereo partly specified), the T/C (dose: 5.0 mg/kg/injection, schedule: Q01DX009 (ip), vehicle: Klucel (hydroxypropylcellulose) (HPC)) was 321 % of control.

Take `Nc1ccccc1SC1CC(=O)N(c2ccccc2)C1=O` (stereo unspecified): the T/C is 94 % of control (dose: 100.0 mg/kg/injection, schedule: Q01DX001 (ip), vehicle: saline with Tween-80); 94 % of control (dose: 200.0 mg/kg/injection, schedule: Q01DX001 (ip), vehicle: saline with Tween-80); 94 % of control (dose: 400.0 mg/kg/injection, schedule: Q01DX001 (ip), vehicle: saline with Tween-80).

`CC(=O)C1CCC2C3CCC4CC(O)CCC4(C)C3CCC12C#N` (stereo unspecified): the T/C is 104 % of control (dose: 100.0 mg/kg/injection, schedule: Q01DX001 (sc), vehicle: steriod suspending solution); 106 % of control (dose: 200.0 mg/kg/injection, schedule: Q01DX001 (sc), vehicle: steriod suspending solution); 95 % of control (dose: 400.0 mg/kg/injection, schedule: Q01DX001 (sc), vehicle: steriod suspending solution).

In the case of `c1ccc(CC(Cc2ccccc2)=[N+]2CCCC2)cc1`, the T/C is, setting by setting: under setting [1], 97 % of control; under setting [2], 88 % of control; under setting [4], 88 % of control.

In the case of `C/C=C(/Cl)c1c(C)cc(C)c(CC(=O)O)c1C`, the T/C under setting [6] is 106 % of control and the T/C under setting [7] is 109 % of control.

Consider `O=[N+]([O-])c1ccc(OCc2ccc(S(=O)(=O)F)c(Cl)c2)c(Cl)c1`, for which the T/C by setting is: (dose: 3.0 mg/kg/injection, schedule: Q01DX009 (ip), vehicle: Klucel (hydroxypropylcellulose) (HPC)) 104 % of control; (dose: 6.0 mg/kg/injection, schedule: Q01DX009 (ip), vehicle: Klucel (hydroxypropylcellulose) (HPC)) 88 % of control; (dose: 12.0 mg/kg/injection, schedule: Q01DX009 (ip), vehicle: Klucel (hydroxypropylcellulose) (HPC)) 95 % of control; (dose: 12.5 mg/kg/injection, schedule: Q01DX009 (ip), vehicle: Klucel (hydroxypropylcellulose) (HPC)) 100 % of control; under setting [5], 97 % of control; (dose: 100.0 mg/kg/injection, schedule: Q04DX003 (ip), vehicle: Klucel (hydroxypropylcellulose) (HPC)) 90 % of control. The T/C under setting [6] was 97 % of control; the T/C (dose: 200.0 mg/kg/injection, schedule: Q04DX003 (ip), vehicle: Klucel (hydroxypropylcellulose) (HPC)) is 88 % of control; the T/C under setting [7] was 90 % of control; the T/C (dose: 400.0 mg/kg/injection, schedule: Q04DX003 (ip), vehicle: Klucel (hydroxypropylcellulose) (HPC)) is 90 % of control.

On to `c1ccc2c(c1)CNCc1ccccc1-2`, for which, under setting [1], the T/C was 97 % of control.

Take `COC(=O)C1(C)CSCCC1=O` (stereo unspecified): the T/C under setting [5] was 91 % of control, the T/C under setting [6] was 105 % of control and the T/C under setting [7] is 96 % of control.

For the compound `COc1cc2ccc(C(C)N)cc2cc1OC` (stereo unspecified), the T/C by setting is: (dose: 50.0 mg/kg/injection, schedule: Q04DX003 (ip), vehicle: saline) 105 % of control; under setting [1], 98 % of control; (dose: 100.0 mg/kg/injection, schedule: Q04DX003 (ip), vehicle: saline) 102 % of control; under setting [2], 100 % of control; (dose: 200.0 mg/kg/injection, schedule: Q04DX003 (ip), vehicle: saline) 95 % of control.
